In ChEMBL document CHEMBL1649315, “Extended-spectrum cephalosporinase in Acinetobacter baumannii” (Antimicrob Agents Chemother, 2010):
pKi: −log10 of the molar value. In brackets after ≈: the same amount, converted by molar mass.

What was measured:
[1] = molecular target: Beta-lactamase ADC-33 (Acinetobacter baumannii, UniProt B2ZTR6); experiment: Activity of Acinetobacter baumannii ADC-33 beta-lactamase
[2] = system: Acinetobacter baumannii; experiment: Ratio of Kcat to Ki for Acinetobacter baumannii ADC-33 beta-lactamase to Kcat to Ki for Acinetobacter baumannii ADC-11 beta-lactamase
[3] = molecular target: ADC-11 (Acinetobacter baumannii, UniProt D6NSM8); experiment: Activity of Acinetobacter baumannii ADC-11 beta-lactamase
[4] = system: Escherichia coli; experiment: Antimicrobial activity against Escherichia coli TOP10 harboring pADC-11 plasmid carrying entire blaAmpC gene with alanine residue insertion at 215 position by Etest method; format: functional
[5] = system: Acinetobacter baumannii; experiment: Antimicrobial activity against Acinetobacter baumannii beta-lactamase by Etest method; format: functional
[6] = system: Acinetobacter baumannii; experiment: Antimicrobial activity against Acinetobacter baumannii KI by Etest method; format: functional
[7] = system: Acinetobacter baumannii; experiment: Antimicrobial activity against Acinetobacter baumannii expressing ESAC beta-lactamase by Etest method; format: functional
[8] = system: Acinetobacter baumannii; experiment: Antimicrobial activity against Acinetobacter baumannii CIP70.10 by Etest method; format: functional
[9] = system: Escherichia coli; experiment: Antimicrobial activity against Escherichia coli TOP10 harboring pADC-50 plasmid by Etest method; format: functional
[10] = system: Escherichia coli; experiment: Antimicrobial activity against Escherichia coli TOP10 harboring pADC-11 plasmid by Etest method; format: functional
[11] = system: Escherichia coli; experiment: Antimicrobial activity against Escherichia coli TOP10 harboring pADC-33 plasmid with entire blaAmpC gene by Etest method; format: functional
[12] = system: Escherichia coli; experiment: Antimicrobial activity against Escherichia coli TOP10 harboring pADC-11 plasmid with entire blaAmpC gene by Etest method; format: functional
[13] = system: Escherichia coli; experiment: Antimicrobial activity against Escherichia coli TOP10 harboring pTOPO plasmid by Etest method; format: functional
[14] = system: Escherichia coli; experiment: Antimicrobial activity against Escherichia coli TOP10 harboring pADC-33 plasmid with entire blaAmpC gene with alanine residue deletion at 215 position by Etest method; format: functional
[15] = system: Escherichia coli; experiment: Antimicrobial activity against Escherichia coli TOP10 harboring pADC-33 plasmid carrying entire blaAmpC gene with alanine residue deletion at 215 position and R210P substitution by Etest method; format: functional
[16] = system: Escherichia coli; experiment: Antimicrobial activity against Escherichia coli TOP10 harboring pADC-33 plasmid by Etest method; format: functional
[17] = system: Acinetobacter baumannii; experiment: Ratio of Kcat to Km for Acinetobacter baumannii ADC-33 beta-lactamase to Kcat to Km for Acinetobacter baumannii ADC-11 beta-lactamase
[18] = system: Escherichia coli; experiment: Antimicrobial activity against Escherichia coli TOP10 harboring pADC-11 plasmid carrying entire blaAmpC gene with alanine residue insertion at 215 position and R210P substitution by Etest method; format: functional
[19] = system: Acinetobacter baumannii; experiment: Antimicrobial activity against Acinetobacter baumannii AYE expressing VEB-1 gene by Etest method; format: functional

SMILES: CO[C@@]1(NC(=O)Cc2cccs2)C(=O)N2C(C(=O)O)=C(COC(N)=O)CS[C@@H]21 [CEFOXITIN]
- pKi [1]: 7.00
- kcat/Km [2]: 1e+06 M⁻¹ s⁻¹
- pKi [3]: 6.30

SMILES: CO/N=C(\C(=O)N[C@@H]1C(=O)N2C(C(=O)[O-])=C(C[n+]3cccc4c3CCC4)CS[C@H]12)c1csc(N)n1 [CEFPIROME]
- MIC [4]: 2 mg/L (≈ 3.89 µM)
- MIC [5]: 4 mg/L (≈ 7.77 µM)
- MIC [6]: > 256 mg/L
- MIC [7]: 128 mg/L (≈ 249 µM)
- MIC [8]: 2 mg/L (≈ 3.89 µM)
- MIC [9]: 0.047 mg/L (≈ 0.0913 µM)
- MIC [10]: 0.032 mg/L (≈ 0.0622 µM)
- MIC [11]: 4 mg/L (≈ 7.77 µM)
- MIC [12]: 0.125 mg/L (≈ 0.243 µM)
- MIC [13]: 0.023 mg/L (≈ 0.0447 µM)
- MIC [14]: 0.5 mg/L (≈ 0.972 µM)
- MIC [15]: 0.125 mg/L (≈ 0.243 µM)
- MIC [16]: 0.5 mg/L (≈ 0.972 µM)
- kcat/Km [17]: 1.25e+07 M⁻¹ s⁻¹
- MIC [18]: 8 mg/L (≈ 15.5 µM)
- MIC [19]: > 256 mg/L

SMILES: CC(C)(O/N=C(\C(=O)N[C@@H]1C(=O)N2C(C(=O)[O-])=C(C[n+]3ccccc3)CS[C@H]12)c1csc(N)n1)C(=O)O [CEFTAZIDIME]
- MIC [4]: > 256 mg/L
- MIC [6]: > 256 mg/L
- MIC [8]: 2 mg/L (≈ 3.66 µM)
- MIC [9]: 0.5 mg/L (≈ 0.915 µM)
- MIC [10]: 0.5 mg/L (≈ 0.915 µM)
- MIC [11]: > 256 mg/L
- MIC [12]: 8 mg/L (≈ 14.6 µM)
- MIC [13]: 0.125 mg/L (≈ 0.229 µM)
- MIC [14]: 16 mg/L (≈ 29.3 µM)
- MIC [15]: 8 mg/L (≈ 14.6 µM)
- MIC [16]: > 256 mg/L
- kcat/Km [17]: 1.5e+08 M⁻¹ s⁻¹
- MIC [18]: > 256 mg/L
- MIC [19]: > 256 mg/L

SMILES: CO/N=C(\C(=O)N[C@@H]1C(=O)N2C(C(=O)O)=C(COC(N)=O)CS[C@H]12)c1ccco1 [CEFUROXIME]
- MIC [4]: > 256 mg/L
- MIC [6]: > 256 mg/L
- MIC [8]: 32 mg/L (≈ 75.4 µM)
- MIC [9]: 64 mg/L (≈ 151 µM)
- MIC [10]: 128 mg/L (≈ 302 µM)
- MIC [11]: > 256 mg/L
- MIC [12]: > 256 mg/L
- MIC [13]: 2 mg/L (≈ 4.71 µM)
- MIC [14]: > 256 mg/L
- MIC [15]: > 256 mg/L
- MIC [16]: > 256 mg/L
- MIC [18]: > 256 mg/L
- MIC [19]: > 256 mg/L
